The values that follow come from US20220274938A1, “5-[(1S)-1-(4-BROMOPHENOXY)ETHYL]-2H-TETRAZOLE DERIVATIVES AND RELATED COMPOUNDS AS CLC-1 ION CHANNEL INHIBITORS FOR TREATING NEUROMUSCULAR DISORDERS” (NMD PHARMA A/S, priority 2019, published 2022).

The target in the first test is T1, CIC-1 ion channel (Rattus norvegicus, UniProt P35524).
T1 construct: CIC-1 channels in native tissue of rat skeletal muscle fibres; from tissue; host or cells: whole soleus muscle of 12-14 week old Wistar rats
T1 sequence (P35524 1-994): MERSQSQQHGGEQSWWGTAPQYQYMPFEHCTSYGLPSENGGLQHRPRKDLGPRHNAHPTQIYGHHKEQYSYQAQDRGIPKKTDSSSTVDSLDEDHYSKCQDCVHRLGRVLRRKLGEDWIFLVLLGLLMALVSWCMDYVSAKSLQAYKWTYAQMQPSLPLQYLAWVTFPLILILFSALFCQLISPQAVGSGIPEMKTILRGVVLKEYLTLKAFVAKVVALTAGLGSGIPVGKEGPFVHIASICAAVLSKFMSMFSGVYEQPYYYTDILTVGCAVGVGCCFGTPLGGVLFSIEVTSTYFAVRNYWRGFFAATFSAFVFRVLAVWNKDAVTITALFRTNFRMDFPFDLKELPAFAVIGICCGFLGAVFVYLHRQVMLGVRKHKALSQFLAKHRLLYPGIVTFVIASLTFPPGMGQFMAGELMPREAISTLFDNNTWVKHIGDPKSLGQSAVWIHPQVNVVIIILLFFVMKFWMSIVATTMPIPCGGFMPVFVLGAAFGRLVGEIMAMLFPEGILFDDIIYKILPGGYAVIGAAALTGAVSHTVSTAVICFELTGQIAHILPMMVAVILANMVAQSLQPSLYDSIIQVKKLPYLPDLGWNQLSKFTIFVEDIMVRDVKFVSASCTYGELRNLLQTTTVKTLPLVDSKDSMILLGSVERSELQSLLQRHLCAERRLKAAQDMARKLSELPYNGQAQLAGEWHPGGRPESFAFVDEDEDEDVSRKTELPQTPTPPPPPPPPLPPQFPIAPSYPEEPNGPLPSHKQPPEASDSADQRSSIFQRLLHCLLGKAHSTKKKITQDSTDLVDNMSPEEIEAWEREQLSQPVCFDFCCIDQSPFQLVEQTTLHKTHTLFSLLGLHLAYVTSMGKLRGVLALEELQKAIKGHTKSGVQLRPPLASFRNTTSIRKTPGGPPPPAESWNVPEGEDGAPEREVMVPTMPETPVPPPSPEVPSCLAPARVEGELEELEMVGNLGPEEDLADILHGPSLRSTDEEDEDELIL
The test can be described thus: Electrophysiological measurement (Gm, three micro-electrodes) of compound inhibition of CIC-1 in rat soleus muscle fibres. The class given is cell-based. The note with it: approx. 30° C., four increasing compound concentrations, read-out: EC50 (inhibition of CIC-1 ion channel, reduction of Gm). The text has this: FIG. 1. […] Please note that the drawing illustrates only the impaled fibre although it is part of an intact muscle that contains many such fibres. All electrodes recorded the membrane potential of the fibre and the two peripheral electrodes were used to inject current (−30 nA, 50 ms). The electrodes were inserted with known inter-electrode distances (X1, X2 and X3). After insertion, current was passed first via the V1 electrode and then via the V3 electrode. The resulting deflections in the membrane voltage were measured by the other electrodes. The steady state deflections in membrane potential were measured and divided by the magnitude of the injected current (−30 nA) to obtain transfer resistances. These were next plotted against inter-electrode distances, and fitted to an exponential function (Panel B), from which Gm could be calculated using linear cable theory. The approach described in panel A and B, was repeated for several muscle fibres in the muscle during exposure at increasing concentrations of compound E-8, with approx. 10 fibres at each concentration. Average Gm at each concentration was plotted as a function of compound concentration in panel C, and fitted to a 4-parameter sigmoidal function from which the EC50 value for the compound was obtained (dashed line)
Apparent CIC-1 affinity was reported by the concentration of compound at which 50% of the compound's full inhibition of CIC-1 was observed (EC50).
CIC-1 Cl^− ion channels generate around 80% of the total membrane conductance (Gm) in resting skeletal muscle fibres of most animals including rat and human (Bretag, A H. Muscle chloride channels. Physiological Reviews, 1987, 67, 618-724). […] CIC-1 inhibition would in such recordings be reflected by a reduction of Gm.
Experimentally, Gm was measured in individual fibres of whole rat soleus muscles using a three micro-electrodes technique described in this example and in full detail elsewhere (Riisager et al., Determination of cable parameters in skeletal muscle fibres during repetitive firing of action potentials. Journal of Physiology, 2014, 592, 4417-4429). Briefly, intact rat soleus muscles were dissected out from 12-14 week old Wistar rats and placed in an experimental chamber that was perfused with a standard Krebs Ringer solution containing 122 mM NaCl, 25 mM NaHCO3, 2.8 mM KCl, 1.2 mM KH2PO4, 1.2 mM MgSO4, 1.3 mM CaCl2, 5.0 mM D-glucose. During experiments, the solution was kept at approx. 30° C. and continuously equilibrated with a mixture of 95% O2 and 5% CO2, pH˜7.4. The experimental chamber was placed in Nikon upright microscope that was used to visualize individual muscle fibres and the three electrodes (glass pipettes filled with 2 M potassium citrate). For Gm measurements, the electrodes were inserted into the same fibre with known inter-electrode distances of 0.35-0.5 mm (V1-V2, X1) and 1.1-1.5 mm (V1-V3, X3) (FIG. 1A). The membrane potential of the impaled muscle fibre was recorded by all electrodes. Two of the electrodes were furthermore used to inject 50 ms current pulses of −30 nA. […] The steady state voltage deflection at each distance was divided by the magnitude of current injected (−30 nA) and the resulting transfer resistances were plotted against inter-electrode distance and the data was fitted to a mono-exponential function from which Gm could be calculated using linear cable theory (FIG. 1B).
To establish a dose response relationship, Gm was first determined in 10 muscle fibres in the absence of compound and then at four increasing compound concentrations with Gm determinations in 5-10 fibres at each concentration. The average Gm values at each concentration were plotted against compound concentration and the data was fitted to sigmoidal function to obtain an EC50 value (FIG. 1C).
The EC50 is the concentration at which the effect is half-maximal. Regarding `CC(C)ONC(=O)[C@H](C)Oc1ccc(Cl)cc1` [Compound C-84, (2S)-2-(4-chlorophenoxy)-N-(propan-2-yloxy)propanamide], the EC50 amounted to 11.5 µM.

For the compound `C[C@H](Oc1ccc(Cl)cc1)C(=O)NOC1CCCC1` [Compound C-70, (2S)-2-(4-chlorophenoxy)-N-(cyclopentyloxy)propanamide], the EC50 was determined as 4.6 µM.

Consider `CC(=NO)NC(=O)[C@H](C)Oc1ccc(Br)cc1` [Compound A-6, (2S)-2-(4-bromophenoxy)-N-[1-(hydroxyimino)ethyl]propanamide], for which the concentration giving a half-maximal response (EC50) was found to be 2 µM.

With `C[C@H](Oc1ccc(Br)cc1-c1ccon1)c1nnn[nH]1` [Compound E-7], the 50% effective concentration (EC50) was 6 µM.

On to `C[C@H](Oc1ccc(Cl)cc1)c1nnn[nH]1` [Compound E-15, 5-[(1S)-1-(4-chlorophenoxy)ethyl]-1H-1,2,3,4-tetrazole], for which the concentration for a half-maximal effect (EC50) was 19.9 µM.

Turning to `CCONC(=O)[C@H](C)Oc1ccc(Cl)cc1` [Compound C-82, (2S)-2-(4-chlorophenoxy)-N-ethoxypropanamide], the concentration for a half-maximal effect (EC50) turned out to be 9.7 µM.

The test system of another test is isolated rat soleus muscles. As to the kind of experiment: Measurement of force in an in vitro model: isolated rat soleus nerve-muscle preparation with tubocurarine. The note with it: 50 μM test compound, after 40 mins of compound exposure; 115 nM tubocurarine for 90 mins. The class given is cell-based. As for the experimental part:
FIG. 2. […] Force traces from a representative muscle stimulated to contract in 1) control condition before addition of neuromuscular blocking agent, 2) the force response to stimulation after 90 minutes incubation with Tubocurarine. […] The traces presented in panel A (1, 2, 3), correspond to the dotted lines in panel B, respectively.
Recovery of force is quantified as the percentage of the force prior to tubocurarine that is recovered by the compound.
The current disclosure relates to compounds that inhibit CIC-1 ion channels and increase muscle excitability and thereby improve muscle function in clinical conditions where muscle activation is failing. Such conditions result in loss of contractile function of skeletal muscle, weakness and excessive fatigue. In this series of experiments the compounds were tested for their ability to restore contractile function of isolated rat muscle when the neuromuscular transmission had been compromised akin to neuromuscular disorders.
Experimentally, soleus muscles from 4-5 week old rats were isolated with the motor nerve remaining attached. The nerve-muscle preparations were mounted in experimental setups that enabled electrical stimulation of the motor nerve. Stimulation of the motor nerve led to activation of the muscle fibres and ensuing force production that was recorded. The nerve-muscle preparations were also in these experiments incubated in the standard Krebs Ringer (see example 5) and the solution was heated to 30° C. and continuously equilibrated with a mixture of 95% O2 and 5% CO2, pH˜7.4.
After mounting the nerve-muscle preparation in the experimental setup, the contractile function of the muscle was initially assessed under the control conditions (FIG. 2A). […] The experimental condition mimics the failing neuromuscular transmission in a range of neuromuscular disorders. After addition of tubocurarine the contractile force declined over the next 90 mins to 10-50% of the control force. 50 μM of the test compound was then added and the contractile force recovered despite the continued presence of tubocurarine. To quantify the ability of the compound to restore force the percentage of the initial force that was restored was determined after 40 mins of compound exposure (FIG. 2B) and the point increase is reported in Table 3.
Take `C[C@H](Oc1ccc(Br)cc1C(C)(F)F)C(=O)NC#N` [Compound B-6]: the “Point increase (%) of initial force that was restored” value (“Point increase (%)” for short) is listed as 15%.

For the compound `CC(=NO)NC(=O)[C@H](C)Oc1ccc(Br)cc1F` [Compound A-5, (2S)-2-(4-bromo-2-fluorophenoxy)-N-[1-(hydroxyimino)ethyl]ropanamide], the “Point increase (%)” value is given as 30%.

Turning to `CCC(F)(F)c1cc(Br)c(F)cc1O[C@@H](C)C(=O)NC#N` [Compound B-7, (2S)-2-[4-bromo-2-(1,1-difluoropropy1)-5-fluorophenoxy]-N-cyanopropanamide], the “Point increase (%)” value is reported as 37%.

The test is the same for the next values; noted with them: Rattus norvegicus, 40 min; 50 μM test compound, after 40 mins of compound exposure; 115 nM tubocurarine for 90 mins; read-out: Point increase (%) of initial force that was restored.
Regarding `C[C@H](Oc1ccc(Cl)cc1)C(=O)NOCc1nccs1` [Compound C-66, (2S)-2-(4-chlorophenoxy)-N-[(1,3-thiazol-2-yl)methoxy]propanamide], the activation at 50 µM was 21%.

Take `CC(=O)N1CCC(ON(C(C)=O)C(=O)[C@H](C)Oc2ccc(Cl)cc2)C1` (stereo partly drawn) [Compound C-16, (2S)-N-acetyl-N-[(1-acetylpyrrolidin-3-yl)oxy]-2-(4-chlorophenoxy)propanamide]: the activation at 50 µM amounted to 23%.

Take `CC(=O)N1CC(ON(C(C)=O)C(=O)[C@H](C)Oc2ccc(Cl)cc2)C1` [Compound C-3, (2S)-N-acetyl-N-[(1-acetylazetidin-3-yl)oxy]-2-(4-chlorophenoxy)propanamide]: the activation at 50 µM was found to be 29%.

On to `FCC[C@H](Oc1ccc(Br)cc1-c1ccon1)c1nn[nH]n1` [Compound E-1], for which the activation at 50 µM is 21%.

Consider `C[C@H](Oc1ccc(Cl)cc1)C(=O)NOCCC1CCCC1` [Compound C-71, (2S)-2-(4-chlorophenoxy)-N-(2-cyclopentylethoxy)propanamide], for which the activation at 50 µM came out at 25%.

Consider `CC(=O)N1CCC(ON(C(C)=O)C(=O)[C@H](C)Oc2ccc(Br)cc2)C1` (stereo partly drawn) [Compound C-12, (2S)-N-acetyl-N-[(1-acetylpyrrolidin-3-yl)oxy]-2-(4-bromophenoxy)propanamide], for which the activation at 50 µM worked out at 18%.

In the case of `C[C@H](Oc1ccc(Cl)cc1)C(=O)NOC1CCCCO1` (stereo partly drawn) [Compound C-65, (2S)-2-(4-chlorophenoxy)-N-(oxan-2-yloxy)propanamide], the activation at 50 µM is 26%.

Turning to `C[C@H](Oc1ccc(Cl)cc1)C(=O)NOCc1ccon1` [Compound C-39, (2S)-2-(4-chlorophenoxy)-N-[(1,2-oxazol-3-yl)methoxy]propanamide], the activation at 50 µM is 49%.

In the case of `C=Cc1cc(Cl)ccc1O[C@@H](C)c1nnn[nH]1` [Compound E-12, 5-[(1S)-1-(4-chloro-2-ethenylphenoxy)ethyl]-1H-1,2,3,4-tetrazole], the activation at 50 µM worked out at 21%.

Consider `C[C@H](Oc1ccc(Br)cc1F)C(=O)NOC1CCC1` [Compound C-31, (2S)-2-(4-bromo-2-fluorophenoxy)-N-cyclobutoxypropanamide], for which the activation at 50 µM came out at 56%.

As to `C[C@H](Oc1ccc(Cl)cc1)C(=O)NOC1CC(F)(F)C1` [Compound C-67, (2S)-2-(4-chlorophenoxy)-N-(3,3-difluorocyclobutoxy)propanamide], the activation at 50 µM was found to be 23%.

On to `CONC(=O)[C@H](C)Oc1ccc(Cl)cc1F` [Compound C-40, (2S)-2-(4-chloro-2-fluorophenoxy)-N-methoxypropanamide], for which the activation at 50 µM came to 24%.

For the compound `C[C@H](Oc1ccc(Cl)cc1)C(=O)NOC(C)(C)C` [Compound C-43, (2S)-N-(tert-butoxy)-2-(4-chlorophenoxy)propanamide], the activation at 50 µM stood at 20%.

In the case of `C[C@H](Oc1ccc(Br)cc1)c1nn[nH]n1` [Compound E-6, 5-[(1S)-1-(4-bromophenoxy)ethyl]-2H-1,2,3,4-tetrazole], the activation at 50 µM was 21%.
